PubChem BioAssay AID1918933 (Molecular Pharmacology Branch, DTP, NCI, 2023)

Tested on: 186277-243-T-J2-PDC complex spheroid viability
Experiment: Anticancer human tumor 186277-243-T-J2-PDC patient-derived colon adenocarcinoma cell line growth inhibition
Details: for IC50: curve of first compound; for viability, T/C: stronger effect = lower value
Method in brief: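 Complex spheroids of tumor cells with HUVEC and human MSCs, exposed to iadademstat combined with other agents. Each agent tested in half-log steps from near clinical Cmax (else 10 microM top), DMSO ≤0.25%.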

[1] = second compound 0.1 µM, first compound 0.0316 µM
[2] = second compound 0.1 µM, first compound 0.1 µM
[3] = second compound 0.1 µM, first compound 0.316 µM
[4] = second compound 0.1 µM, first compound 1 µM
[5] = second compound 0.1 µM, first compound 3.16 µM
[6] = second compound 0.1 µM, first compound 10 µM
[7] = second compound 0.316 µM, first compound 0.0316 µM
[8] = second compound 0.316 µM, first compound 0.1 µM
[9] = second compound 0.316 µM, first compound 0.316 µM
[10] = second compound 0.316 µM, first compound 1 µM
[11] = second compound 0.316 µM, first compound 3.16 µM
[12] = second compound 0.316 µM, first compound 10 µM
[13] = second compound 1 µM, first compound 0.0316 µM
[14] = second compound 1 µM, first compound 0.1 µM
[15] = second compound 1 µM, first compound 0.316 µM
[16] = second compound 1 µM, first compound 1 µM
[17] = second compound 1 µM, first compound 3.16 µM
[18] = second compound 1 µM, first compound 10 µM
[19] = second compound 3.16 µM, first compound 0.0316 µM
[20] = second compound 3.16 µM, first compound 0.1 µM
[21] = second compound 3.16 µM, first compound 0.316 µM
[22] = second compound 3.16 µM, first compound 1 µM
[23] = second compound 3.16 µM, first compound 3.16 µM
[24] = second compound 3.16 µM, first compound 10 µM
[25] = second compound 10 µM, first compound 0.0316 µM
[26] = second compound 10 µM, first compound 0.1 µM
[27] = second compound 10 µM, first compound 0.316 µM
[28] = second compound 10 µM, first compound 1 µM
[29] = second compound 10 µM, first compound 3.16 µM
[30] = second compound 10 µM, first compound 10 µM
[31] = second compound 0.1 µM, first compound 0.00316 µM
[32] = second compound 0.1 µM, first compound 0.01 µM
[33] = second compound 0.316 µM, first compound 0.00316 µM
[34] = second compound 0.316 µM, first compound 0.01 µM
[35] = second compound 1 µM, first compound 0.00316 µM
[36] = second compound 1 µM, first compound 0.01 µM
[37] = second compound 3.16 µM, first compound 0.00316 µM
[38] = second compound 3.16 µM, first compound 0.01 µM
[39] = second compound 10 µM, first compound 0.00316 µM
[40] = second compound 10 µM, first compound 0.01 µM
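Also: 7 day exposure to compounds.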
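For viability, T/C in this document: 100% = DMSO vehicle control viability.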

For `CC(C)c1c(-c2ccccc2)nc2c(C#N)c[nH]n2c1=O` + NC1CC1c1ccc(-c2cccc(O)c2)cc1, the IC50 (second compound 0.1 µM) was > 10 µM, the IC50 (second compound 0.316 µM) was > 10 µM and the IC50 (second compound 1 µM) was > 10 µM. For the same compound, the IC50 (second compound 3.16 µM) was > 10 µM, the IC50 (second compound 10 µM) was > 10 µM and the viability, T/C [1] was 114%. It also gave a viability, T/C [2] of 101%, a viability, T/C [3] of 106% and a viability, T/C [4] of 85.4%. It also gave a viability, T/C [5] of 88.1%, a viability, T/C [6] of 72.5% and a viability, T/C [7] of 95.9%. It also gave a viability, T/C [8] of 107%, a viability, T/C [9] of 104% and a viability, T/C [10] of 100%. For the same compound, the viability, T/C [11] was 85.9%, the viability, T/C [12] was 78.5% and the viability, T/C [13] was 106%. For the same compound, the viability, T/C [14] was 99.8%, the viability, T/C [15] was 93% and the viability, T/C [16] was 96.2%. It also gave a viability, T/C [17] of 95.4%, a viability, T/C [18] of 73.7% and a viability, T/C [19] of 101%. For the same compound, the viability, T/C [20] was 106%, the viability, T/C [21] was 111% and the viability, T/C [22] was 108%. For the same compound, the viability, T/C [23] was 96.9%, the viability, T/C [24] was 80.9% and the viability, T/C [25] was 88.9%. The viability, T/C [26] was 86%, the viability, T/C [27] was 102% and the viability, T/C [28] was 97.6%. It also gave a viability, T/C [29] of 85% and a viability, T/C [30] of 74.6%.

In the case of `CC1COCCN1c1cc(-c2ccnn2C)c2ccnc(-c3ccn[nH]3)c2n1` (stereo not given) + NC1CC1c1ccc(-c2cccc(O)c2)cc1, the IC50 (second compound 0.1 µM) is reported as < 0.00316 µM, the IC50 (second compound 0.316 µM) is reported as < 0.00316 µM and the IC50 (second compound 1 µM) is reported as < 0.00316 µM. The IC50 (second compound 3.16 µM) was < 0.00316 µM, the IC50 (second compound 10 µM) was < 0.00316 µM and the viability, T/C [31] was 20.3%. The viability, T/C [32] was 15.9%, the viability, T/C [1] was 9.71% and the viability, T/C [2] was 8.39%. The viability, T/C [3] was 9.56%, the viability, T/C [4] was 6.55% and the viability, T/C [33] was 19.9%. The viability, T/C [34] was 16.7%, the viability, T/C [7] was 10.2% and the viability, T/C [8] was 8.74%. It also gave a viability, T/C [9] of 8.51%, a viability, T/C [10] of 6.53% and a viability, T/C [35] of 20.7%. It also gave a viability, T/C [36] of 15.4%, a viability, T/C [13] of 10.2% and a viability, T/C [14] of 7.9%. The viability, T/C [15] was 8.7%, the viability, T/C [16] was 5.94% and the viability, T/C [37] was 22.6%. For the same compound, the viability, T/C [38] was 17.3%, the viability, T/C [19] was 10.9% and the viability, T/C [20] was 8.9%. It also gave a viability, T/C [21] of 9.05%, a viability, T/C [22] of 6.86% and a viability, T/C [39] of 18%. The viability, T/C [40] was 15.5%, the viability, T/C [25] was 10.1% and the viability, T/C [26] was 8.33%. It also gave a viability, T/C [27] of 8.45% and a viability, T/C [28] of 7.35%.

Compound `COc1ccc([C@@H](O)c2cc(-c3ncnc4cc(N5CCOCC5)ccc34)c(F)cc2Cl)nn1` + NC1CC1c1ccc(-c2cccc(O)c2)cc1 has an IC50 (second compound 0.1 µM) of 5.37 µM, an IC50 (second compound 0.316 µM) of 4.68 µM and an IC50 (second compound 1 µM) of 4.39 µM. For the same compound, the IC50 (second compound 3.16 µM) was 4.41 µM, the IC50 (second compound 10 µM) was 3.73 µM and the viability, T/C [1] was 105%. For the same compound, the viability, T/C [2] was 109%, the viability, T/C [3] was 112% and the viability, T/C [4] was 96.3%. It also gave a viability, T/C [5] of 81.8%, a viability, T/C [6] of 14% and a viability, T/C [7] of 109%. It also gave a viability, T/C [8] of 108%, a viability, T/C [9] of 110% and a viability, T/C [10] of 89.1%. For the same compound, the viability, T/C [11] was 70.8%, the viability, T/C [12] was 12.8% and the viability, T/C [13] was 107%. For the same compound, the viability, T/C [14] was 113%, the viability, T/C [15] was 114% and the viability, T/C [16] was 80.9%. It also gave a viability, T/C [17] of 68.7%, a viability, T/C [18] of 12.9% and a viability, T/C [19] of 110%. The viability, T/C [20] was 118%, the viability, T/C [21] was 97.1% and the viability, T/C [22] was 102%. The viability, T/C [23] was 64.7%, the viability, T/C [24] was 11.7% and the viability, T/C [25] was 97.7%. For the same compound, the viability, T/C [26] was 103%, the viability, T/C [27] was 106% and the viability, T/C [28] was 91.3%. The viability, T/C [29] was 57.8% and the viability, T/C [30] was 5.72%.

`Nc1ncn(C2CC(O)C(CO)O2)c(=O)n1` (stereo not given) + NC1CCC(NC2CC2c2ccccc2)CC1 was tested, and the IC50 (second compound 0.1 µM) was > 1 µM, the IC50 (second compound 0.316 µM) was > 1 µM and the IC50 (second compound 1 µM) was > 1 µM. For the same compound, the IC50 (second compound 3.16 µM) was > 1 µM, the IC50 (second compound 10 µM) was > 1 µM and the viability, T/C [31] was 97.6%. The viability, T/C [32] was 110%, the viability, T/C [1] was 98.2% and the viability, T/C [2] was 129%. For the same compound, the viability, T/C [3] was 139%, the viability, T/C [4] was 142% and the viability, T/C [33] was 95.9%. For the same compound, the viability, T/C [34] was 111%, the viability, T/C [7] was 107% and the viability, T/C [8] was 127%. For the same compound, the viability, T/C [9] was 141%, the viability, T/C [10] was 138% and the viability, T/C [35] was 102%. It also gave a viability, T/C [36] of 119%, a viability, T/C [13] of 111% and a viability, T/C [14] of 130%. The viability, T/C [15] was 127%, the viability, T/C [16] was 135% and the viability, T/C [37] was 101%. The viability, T/C [38] was 108%, the viability, T/C [19] was 112% and the viability, T/C [20] was 137%. The viability, T/C [21] was 151%, the viability, T/C [22] was 138% and the viability, T/C [39] was 113%. For the same compound, the viability, T/C [40] was 105%, the viability, T/C [25] was 116% and the viability, T/C [26] was 140%. For the same compound, the viability, T/C [27] was 140% and the viability, T/C [28] was 132%.
